Experimental data as given in the supplement of paper PMC10307832.

Tests used:
Test in all cases: relative viability (nuclei count vs DMSO), 5 days (fraction); higher = more cells survive
Zosuquidar + Dasatinib = compound: O[C@@H](COc1cccc2ncccc12)CN1CCN([C@@H]2c3ccccc3[C@@H]3[C@H](c4ccccc42)C3(F)F)CC1 [Zosuquidar] + Cc1nc(Nc2ncc(C(=O)Nc3c(C)cccc3Cl)s2)cc(N2CCN(CCO)CC2)n1 [Dasatinib] (partner 0.075 µM)
Procedure, shortened: (§1)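 Lung cancer cell lines were seeded in 1536-well plates and dosed by pin tool the next day, with either a single drug or a fixed anchor-drug dose combined with five library-drug doses (not always all listed) spaced in √10 steps. Five days later, one step fixed the cells and stained their nuclei (final 0.05% Triton X-100, 1% formaldehyde, 1 ug/ml Hoechst), and nuclei were counted on 4× images. Relative viability is the nuclei count in treated wells divided by the count in vehicle wells, and each value is the median of duplicate plates.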

[1] = compound: COc1cc2nccc(Oc3ccc(NC(=O)C4(C(=O)Nc5ccc(F)cc5)CC4)cc3)c2cc1OC [Cabozantinib] + C[C@@H](Oc1cc(-c2cnn(C3CCNCC3)c2)cnc1N)c1c(Cl)ccc(F)c1Cl [Crizotinib] (partner 1 µM)
Procedure, shortened: as §1

Cabozantinib + Lapatinib = compound: COc1cc2nccc(Oc3ccc(NC(=O)C4(C(=O)Nc5ccc(F)cc5)CC4)cc3)c2cc1OC [Cabozantinib] + CS(=O)(=O)CCNCc1ccc(-c2ccc3ncnc(Nc4ccc(OCc5cccc(F)c5)c(Cl)c4)c3c2)o1 [Lapatinib] (partner 2 µM)
Procedure, shortened: as §1

H3255 showed a relative viability (Zosuquidar + Dasatinib; first compound 0.01 µM) of 0.346, a relative viability (Zosuquidar + Dasatinib; first compound 0.03162 µM) of 0.273 and a relative viability (Zosuquidar + Dasatinib; first compound 0.1 µM) of 0.341. It also gave a relative viability (Zosuquidar + Dasatinib; first compound 0.3162 µM) of 0.727, a relative viability (Zosuquidar + Dasatinib; first compound 1 µM) of 0.303 and a relative viability ([1]; first compound 0.02 µM) of 0.922. For the same cell line, the relative viability ([1]; first compound 0.06325 µM) was 0.927, the relative viability ([1]; first compound 0.6325 µM) was 0.974 and the relative viability ([1]; first compound 2 µM) was 0.931. For the same cell line, the relative viability (Cabozantinib + Lapatinib; first compound 0.02 µM) was 0.182, the relative viability (Cabozantinib + Lapatinib; first compound 0.06325 µM) was 0.234 and the relative viability (Cabozantinib + Lapatinib; first compound 0.6325 µM) was 0.366. For the same cell line, the relative viability (Cabozantinib + Lapatinib; first compound 2 µM) was 0.217.
With NCI-H2347 the relative viability (Zosuquidar + Dasatinib; first compound 0.01 µM) was 0.321, the relative viability (Zosuquidar + Dasatinib; first compound 0.03162 µM) was 0.384 and the relative viability (Zosuquidar + Dasatinib; first compound 0.1 µM) was 0.253. The relative viability (Zosuquidar + Dasatinib; first compound 0.3162 µM) was 0.309, the relative viability (Zosuquidar + Dasatinib; first compound 1 µM) was 0.351 and the relative viability ([1]; first compound 0.02 µM) was 0.761. For the same cell line, the relative viability ([1]; first compound 0.06325 µM) was 0.771, the relative viability ([1]; first compound 0.2 µM) was 0.46 and the relative viability ([1]; first compound 0.6325 µM) was 0.786. The relative viability ([1]; first compound 2 µM) was 0.584, the relative viability (Cabozantinib + Lapatinib; first compound 0.02 µM) was 0.883 and the relative viability (Cabozantinib + Lapatinib; first compound 0.06325 µM) was 0.951. It also gave a relative viability (Cabozantinib + Lapatinib; first compound 0.2 µM) of 1.03, a relative viability (Cabozantinib + Lapatinib; first compound 0.6325 µM) of 0.824 and a relative viability (Cabozantinib + Lapatinib; first compound 2 µM) of 0.925.
CAL-12T was tested, and the relative viability (Zosuquidar + Dasatinib; first compound 0.01 µM) was 0.355, the relative viability (Zosuquidar + Dasatinib; first compound 0.03162 µM) was 0.397 and the relative viability (Zosuquidar + Dasatinib; first compound 0.1 µM) was 0.38. It also gave a relative viability (Zosuquidar + Dasatinib; first compound 0.3162 µM) of 0.606, a relative viability (Zosuquidar + Dasatinib; first compound 1 µM) of 0.443 and a relative viability ([1]; first compound 0.02 µM) of 0.724. It also gave a relative viability ([1]; first compound 0.06325 µM) of 0.753, a relative viability ([1]; first compound 0.2 µM) of 0.634 and a relative viability ([1]; first compound 0.6325 µM) of 0.611. For the same cell line, the relative viability ([1]; first compound 2 µM) was 0.429, the relative viability (Cabozantinib + Lapatinib; first compound 0.02 µM) was 0.708 and the relative viability (Cabozantinib + Lapatinib; first compound 0.06325 µM) was 0.653. The relative viability (Cabozantinib + Lapatinib; first compound 0.2 µM) was 0.701 and the relative viability (Cabozantinib + Lapatinib; first compound 2 µM) was 0.529.
A-427 gave a relative viability (Zosuquidar + Dasatinib; first compound 0.01 µM) of 0.603, a relative viability (Zosuquidar + Dasatinib; first compound 0.03162 µM) of 0.684 and a relative viability (Zosuquidar + Dasatinib; first compound 0.1 µM) of 0.634. The relative viability (Zosuquidar + Dasatinib; first compound 0.3162 µM) was 0.709, the relative viability (Zosuquidar + Dasatinib; first compound 1 µM) was 0.8 and the relative viability ([1]; first compound 0.02 µM) was 0.836. The relative viability ([1]; first compound 0.06325 µM) was 0.968, the relative viability ([1]; first compound 0.2 µM) was 0.887 and the relative viability ([1]; first compound 0.6325 µM) was 0.789. For the same cell line, the relative viability ([1]; first compound 2 µM) was 0.858, the relative viability (Cabozantinib + Lapatinib; first compound 0.02 µM) was 1.1 and the relative viability (Cabozantinib + Lapatinib; first compound 0.06325 µM) was 1.11. The relative viability (Cabozantinib + Lapatinib; first compound 0.2 µM) was 0.963, the relative viability (Cabozantinib + Lapatinib; first compound 0.6325 µM) was 1.02 and the relative viability (Cabozantinib + Lapatinib; first compound 2 µM) was 1.08.
In the case of HARA, the relative viability (Zosuquidar + Dasatinib; first compound 0.01 µM) was 0.252, the relative viability (Zosuquidar + Dasatinib; first compound 0.1 µM) was 0.26 and the relative viability (Zosuquidar + Dasatinib; first compound 0.3162 µM) was 0.257. For the same cell line, the relative viability (Zosuquidar + Dasatinib; first compound 1 µM) was 0.27, the relative viability ([1]; first compound 0.02 µM) was 1.22 and the relative viability ([1]; first compound 0.06325 µM) was 1.17. It also gave a relative viability ([1]; first compound 0.2 µM) of 1.09, a relative viability ([1]; first compound 0.6325 µM) of 0.957 and a relative viability ([1]; first compound 2 µM) of 1.09. It also gave a relative viability (Cabozantinib + Lapatinib; first compound 0.02 µM) of 0.582, a relative viability (Cabozantinib + Lapatinib; first compound 0.06325 µM) of 0.806 and a relative viability (Cabozantinib + Lapatinib; first compound 0.2 µM) of 0.856. It also gave a relative viability (Cabozantinib + Lapatinib; first compound 0.6325 µM) of 0.809 and a relative viability (Cabozantinib + Lapatinib; first compound 2 µM) of 0.639.
NCI-H2170 was tested, and the relative viability (Zosuquidar + Dasatinib; first compound 0.01 µM) was 0.464, the relative viability (Zosuquidar + Dasatinib; first compound 0.03162 µM) was 0.661 and the relative viability (Zosuquidar + Dasatinib; first compound 0.1 µM) was 0.636. For the same cell line, the relative viability (Zosuquidar + Dasatinib; first compound 0.3162 µM) was 0.767, the relative viability (Zosuquidar + Dasatinib; first compound 1 µM) was 0.58 and the relative viability ([1]; first compound 0.02 µM) was 1.33. For the same cell line, the relative viability ([1]; first compound 0.06325 µM) was 1.4, the relative viability ([1]; first compound 0.2 µM) was 1.27 and the relative viability ([1]; first compound 0.6325 µM) was 1.15. For the same cell line, the relative viability ([1]; first compound 2 µM) was 1.19, the relative viability (Cabozantinib + Lapatinib; first compound 0.02 µM) was 0.263 and the relative viability (Cabozantinib + Lapatinib; first compound 0.06325 µM) was 0.302. It also gave a relative viability (Cabozantinib + Lapatinib; first compound 0.2 µM) of 0.16, a relative viability (Cabozantinib + Lapatinib; first compound 0.6325 µM) of 0.353 and a relative viability (Cabozantinib + Lapatinib; first compound 2 µM) of 0.27.
With NCI-H1623 the relative viability (Zosuquidar + Dasatinib; first compound 0.01 µM) was 0.499, the relative viability (Zosuquidar + Dasatinib; first compound 0.03162 µM) was 0.634 and the relative viability (Zosuquidar + Dasatinib; first compound 0.1 µM) was 0.487. It also gave a relative viability (Zosuquidar + Dasatinib; first compound 0.3162 µM) of 0.607 and a relative viability (Zosuquidar + Dasatinib; first compound 1 µM) of 0.498.
For NCI-H2023, the relative viability (Zosuquidar + Dasatinib; first compound 0.01 µM) was 0.46, the relative viability (Zosuquidar + Dasatinib; first compound 0.03162 µM) was 0.436 and the relative viability (Zosuquidar + Dasatinib; first compound 0.1 µM) was 0.557. For the same cell line, the relative viability (Zosuquidar + Dasatinib; first compound 0.3162 µM) was 0.532, the relative viability (Zosuquidar + Dasatinib; first compound 1 µM) was 0.674 and the relative viability ([1]; first compound 0.02 µM) was 0.746. The relative viability ([1]; first compound 0.06325 µM) was 0.755, the relative viability ([1]; first compound 0.2 µM) was 0.714 and the relative viability ([1]; first compound 0.6325 µM) was 0.601. For the same cell line, the relative viability ([1]; first compound 2 µM) was 0.724, the relative viability (Cabozantinib + Lapatinib; first compound 0.02 µM) was 0.473 and the relative viability (Cabozantinib + Lapatinib; first compound 0.06325 µM) was 0.74. The relative viability (Cabozantinib + Lapatinib; first compound 0.2 µM) was 0.708, the relative viability (Cabozantinib + Lapatinib; first compound 0.6325 µM) was 0.552 and the relative viability (Cabozantinib + Lapatinib; first compound 2 µM) was 0.591.
With ABC-1 the relative viability (Zosuquidar + Dasatinib; first compound 0.01 µM) was 0.625, the relative viability (Zosuquidar + Dasatinib; first compound 0.03162 µM) was 0.592 and the relative viability (Zosuquidar + Dasatinib; first compound 0.1 µM) was 0.575. It also gave a relative viability (Zosuquidar + Dasatinib; first compound 0.3162 µM) of 0.766, a relative viability (Zosuquidar + Dasatinib; first compound 1 µM) of 0.532 and a relative viability ([1]; first compound 0.02 µM) of 1.23. The relative viability ([1]; first compound 0.06325 µM) was 1.08, the relative viability ([1]; first compound 0.2 µM) was 1.19 and the relative viability ([1]; first compound 0.6325 µM) was 0.952. For the same cell line, the relative viability ([1]; first compound 2 µM) was 1.01, the relative viability (Cabozantinib + Lapatinib; first compound 0.02 µM) was 1.42 and the relative viability (Cabozantinib + Lapatinib; first compound 0.06325 µM) was 1.1. It also gave a relative viability (Cabozantinib + Lapatinib; first compound 0.2 µM) of 1.11, a relative viability (Cabozantinib + Lapatinib; first compound 0.6325 µM) of 1.1 and a relative viability (Cabozantinib + Lapatinib; first compound 2 µM) of 1.13.
In the case of IA-LM, the relative viability ([1]; first compound 0.02 µM) was 0.962, the relative viability ([1]; first compound 0.06325 µM) was 0.795 and the relative viability ([1]; first compound 0.2 µM) was 0.908. For the same cell line, the relative viability ([1]; first compound 0.6325 µM) was 0.755, the relative viability ([1]; first compound 2 µM) was 0.92 and the relative viability (Cabozantinib + Lapatinib; first compound 0.02 µM) was 0.92. For the same cell line, the relative viability (Cabozantinib + Lapatinib; first compound 0.06325 µM) was 0.91, the relative viability (Cabozantinib + Lapatinib; first compound 0.2 µM) was 1.02 and the relative viability (Cabozantinib + Lapatinib; first compound 0.6325 µM) was 0.946. It also gave a relative viability (Cabozantinib + Lapatinib; first compound 2 µM) of 0.808.
